{"source": "PubChem BioAssay AID220", "about": "(DTP/NCI, 2004)", "system": "CD8F1 mice, subcutaneous mammary adenocarcinoma, T/C%", "experiment": "NCI In Vivo Anticancer Drug Screen. Data for tumor model Mammary Adenocarcinoma CD8F1 (subcutaneous) in CD8F1", "settings": "higher = larger tumour", "in_short": "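Mice carrying transplanted tumors received test compound, and survival or tumor size was recorded. Each value is the treated-group measurement divided by the corresponding measurement in vehicle-dosed controls.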", "key": {"[1]": {"settings": "endpoint: median tumor weight change, dose: 125.0 mg/kg/injection, schedule: Q01DX001 (ip), vehicle: saline with Tween-80"}, "[2]": {"settings": "endpoint: median tumor weight change, dose: 500.0 mg/kg/injection, schedule: Q01DX001 (ip), vehicle: saline with Tween-80"}}, "note": "Results filed as inconclusive are left out."}
{"smiles": "CCCCNC(C)C1(O)Cc2c(O)c3c(c(O)c2C(OC2CC(N)C(O)C(C)O2)C1)C(=O)c1c(OC)cccc1C3=O", "note": "(stereo unspecified)", "values": [{"measurement": "T/C", "setting": "endpoint: median tumor weight (est.), dose: 28.5 mg/kg/injection, schedule: Q07DX005 (ip), vehicle: water", "result": "100 % of control"}, {"measurement": "T/C", "setting": "endpoint: median tumor weight (est.), dose: 42.7 mg/kg/injection, schedule: Q07DX005 (ip), vehicle: water", "result": "154 % of control"}, {"measurement": "T/C", "setting": "endpoint: median tumor weight (est.), dose: 64.0 mg/kg/injection, schedule: Q07DX005 (ip), vehicle: water", "result": "66 % of control"}, {"measurement": "T/C", "setting": "endpoint: median tumor weight (est.), dose: 96.0 mg/kg/injection, schedule: Q07DX005 (ip), vehicle: water", "result": "20 % of control"}, {"measurement": "T/C", "setting": "endpoint: median tumor weight change, dose: 62.5 mg/kg/injection, schedule: Q01DX001 (ip), vehicle: suspension in saline", "result": "98 % of control"}, {"measurement": "T/C", "setting": "endpoint: median tumor weight change, dose: 125.0 mg/kg/injection, schedule: Q01DX001 (ip), vehicle: suspension in saline", "result": "65 % of control"}, {"measurement": "T/C", "setting": "endpoint: median tumor weight change, dose: 250.0 mg/kg/injection, schedule: Q01DX001 (ip), vehicle: suspension in saline", "result": "74 % of control"}, {"measurement": "T/C", "setting": "endpoint: median tumor weight change, dose: 500.0 mg/kg/injection, schedule: Q01DX001 (ip), vehicle: suspension in saline", "result": "15 % of control"}, {"measurement": "T/C", "setting": "endpoint: median tumor weight change, dose: 1000.0 mg/kg/injection, schedule: Q01DX001 (ip), vehicle: suspension in saline", "result": "3 % of control"}]}
{"smiles": "CC(=O)O[C@@H]1[C@@H](O)C2=C3[C@]4(C)[C@@H]1C(C)(C)C(=O)C[C@@H]4[C@]3(O)[C@H](OC(C)=O)[C@@]1(C[C@@H]1C)C2=O", "values": [{"measurement": "T/C", "setting": "endpoint: median tumor weight (est.), dose: 6.25 mg/kg/injection, schedule: Q07DX005 (ip), vehicle: distilled water + Tween-80", "result": "98 % of control"}, {"measurement": "T/C", "setting": "endpoint: median tumor weight (est.), dose: 6.25 mg/kg/injection, schedule: Q07DX005 (ip), vehicle: saline with Tween-80", "result": "112 % of control"}, {"measurement": "T/C", "setting": "endpoint: median tumor weight (est.), dose: 12.5 mg/kg/injection, schedule: Q07DX005 (ip), vehicle: distilled water + Tween-80", "result": "151 % of control"}, {"measurement": "T/C", "setting": "endpoint: median tumor weight (est.), dose: 12.5 mg/kg/injection, schedule: Q07DX005 (ip), vehicle: saline with Tween-80", "result": "117 % of control"}, {"measurement": "T/C", "setting": "endpoint: median tumor weight (est.), dose: 25.0 mg/kg/injection, schedule: Q07DX005 (ip), vehicle: distilled water + Tween-80", "result": "87 % of control"}, {"measurement": "T/C", "setting": "endpoint: median tumor weight (est.), dose: 50.0 mg/kg/injection, schedule: Q07DX005 (ip), vehicle: distilled water + Tween-80", "result": "94 % of control"}, {"measurement": "T/C", "setting": "endpoint: median tumor weight (est.), dose: 50.0 mg/kg/injection, schedule: Q07DX005 (ip), vehicle: saline with Tween-80", "result": "72 % of control"}]}
{"smiles": "CCCNC1=C(C)C(=O)C2=C(C1=O)[C@H](COC(N)=O)[C@]1(OC)[C@@H]3N[C@@H]3CN21", "values": [{"measurement": "T/C", "setting": "endpoint: median tumor weight change, dose: 3.75 mg/kg/injection, schedule: Q01DX001 (ip), vehicle: saline", "result": "7 % of control"}, {"measurement": "T/C", "setting": "endpoint: median tumor weight change, dose: 7.5 mg/kg/injection, schedule: Q01DX001 (ip), vehicle: saline", "result": "13 % of control"}, {"measurement": "T/C", "setting": "endpoint: median tumor weight change, dose: 15.0 mg/kg/injection, schedule: Q01DX001 (ip), vehicle: saline", "result": "-66 % of control"}]}
{"smiles": "NC(=O)c1ccc[n+](Cc2c(Cl)cccc2Cl)c1", "values": [{"measurement": "T/C", "setting": "endpoint: median tumor weight (est.), dose: 3.0 mg/kg/injection, schedule: Q07DX005 (ip), vehicle: saline", "result": "171 % of control"}, {"measurement": "T/C", "setting": "endpoint: median tumor weight (est.), dose: 6.0 mg/kg/injection, schedule: Q07DX005 (ip), vehicle: saline", "result": "102 % of control"}, {"measurement": "T/C", "setting": "endpoint: median tumor weight (est.), dose: 12.0 mg/kg/injection, schedule: Q07DX005 (ip), vehicle: saline", "result": "211 % of control"}, {"measurement": "T/C", "setting": "endpoint: median tumor weight (est.), dose: 48.0 mg/kg/injection, schedule: Q07DX005 (ip), vehicle: saline", "result": "186 % of control"}]}
{"smiles": "CC(C#N)(C#N)N=Nc1ccc(Cl)cc1Cl", "values": [{"measurement": "T/C", "setting": "[1]", "result": "161 % of control"}, {"measurement": "T/C", "setting": "[2]", "result": "115 % of control"}, {"measurement": "T/C", "setting": "endpoint: median tumor weight change, dose: 1000.0 mg/kg/injection, schedule: Q01DX001 (ip), vehicle: saline with Tween-80", "result": "76 % of control"}]}
{"smiles": "CC(=O)[C@]1(O)Cc2c(O)c3c(c(O)c2[C@@H](OC2CC(N)C(O)C(C)O2)C1)C(=O)c1c(O)cccc1C3=O", "note": "(stereo partly specified)", "values": [{"measurement": "T/C", "setting": "endpoint: median tumor weight (est.), dose: 0.6 mg/kg/injection, schedule: Q07DX005 (ip), vehicle: water", "result": "96 % of control"}]}
{"smiles": "COC(=O)[C@@]12OC[C@]34[C@H]([C@@H](O)[C@@H]1O)[C@@]1(C)CC(=O)C(O)=C(C)[C@@H]1C[C@H]3OC(=O)[C@H](OC(=O)/C=C(\\C)C(C)C)[C@@H]24", "values": [{"measurement": "T/C", "setting": "endpoint: median tumor weight (est.), dose: 0.25 mg/kg/injection, schedule: Q07DX005 (ip), vehicle: saline + alcohol", "result": "99 % of control"}, {"measurement": "T/C", "setting": "endpoint: median tumor weight (est.), dose: 0.5 mg/kg/injection, schedule: Q07DX005 (ip), vehicle: saline + alcohol", "result": "92 % of control"}, {"measurement": "T/C", "setting": "endpoint: median tumor weight (est.), dose: 1.0 mg/kg/injection, schedule: Q07DX005 (ip), vehicle: saline + alcohol", "result": "104 % of control"}, {"measurement": "T/C", "setting": "endpoint: median tumor weight change, dose: 1.0 mg/kg/injection, schedule: Q01DX001 (ip), vehicle: saline + alcohol", "result": "85 % of control"}, {"measurement": "T/C", "setting": "endpoint: median tumor weight change, dose: 2.0 mg/kg/injection, schedule: Q01DX001 (ip), vehicle: saline + alcohol", "result": "81 % of control"}, {"measurement": "T/C", "setting": "endpoint: median tumor weight change, dose: 4.0 mg/kg/injection, schedule: Q01DX001 (ip), vehicle: saline + alcohol", "result": "93 % of control"}]}
{"smiles": "CCCCCCCCCCCCSC1=C(Cl)C(=O)C(OC)=C(OC)C1=O", "values": [{"measurement": "T/C", "setting": "endpoint: median tumor weight (est.), dose: 25.0 mg/kg/injection, schedule: Q07DX005 (ip), vehicle: saline with Tween-80", "result": "89 % of control"}, {"measurement": "T/C", "setting": "endpoint: median tumor weight (est.), dose: 100.0 mg/kg/injection, schedule: Q07DX005 (ip), vehicle: saline with Tween-80", "result": "70 % of control"}]}
{"smiles": "Nc1nnc[se]1", "values": [{"measurement": "T/C", "setting": "endpoint: median tumor weight change, dose: 15.6 mg/kg/injection, schedule: Q01DX001 (ip), vehicle: saline with Tween-80", "result": "80 % of control"}, {"measurement": "T/C", "setting": "endpoint: median tumor weight change, dose: 31.25 mg/kg/injection, schedule: Q01DX001 (ip), vehicle: saline with Tween-80", "result": "123 % of control"}, {"measurement": "T/C", "setting": "endpoint: median tumor weight change, dose: 62.5 mg/kg/injection, schedule: Q01DX001 (ip), vehicle: saline with Tween-80", "result": "84 % of control"}, {"measurement": "T/C", "setting": "[1]", "result": "94 % of control"}, {"measurement": "T/C", "setting": "endpoint: median tumor weight change, dose: 250.0 mg/kg/injection, schedule: Q01DX001 (ip), vehicle: saline with Tween-80", "result": "50 % of control"}, {"measurement": "T/C", "setting": "[2]", "result": "38 % of control"}]}
